# Key:
# [1] = target: T1, RNase E (Escherichia coli, UniProt P21513); experiment: FRET-based real-time RNA cleavage assay; also discontinuous PAGE assay; assay type: biochemical
# T1 construct: gene rne; N-terminal domain (aa 1–529), N-terminally His10-tagged
# [2] = target: T2, RNase E (Acinetobacter baumannii, UniProt A0ABX6CBI2); experiment: biochemical
# T2 construct: gene rne; N-terminal domain (aa 1–544), N-terminally His10-tagged
# T1 sequence (P21513 1-529): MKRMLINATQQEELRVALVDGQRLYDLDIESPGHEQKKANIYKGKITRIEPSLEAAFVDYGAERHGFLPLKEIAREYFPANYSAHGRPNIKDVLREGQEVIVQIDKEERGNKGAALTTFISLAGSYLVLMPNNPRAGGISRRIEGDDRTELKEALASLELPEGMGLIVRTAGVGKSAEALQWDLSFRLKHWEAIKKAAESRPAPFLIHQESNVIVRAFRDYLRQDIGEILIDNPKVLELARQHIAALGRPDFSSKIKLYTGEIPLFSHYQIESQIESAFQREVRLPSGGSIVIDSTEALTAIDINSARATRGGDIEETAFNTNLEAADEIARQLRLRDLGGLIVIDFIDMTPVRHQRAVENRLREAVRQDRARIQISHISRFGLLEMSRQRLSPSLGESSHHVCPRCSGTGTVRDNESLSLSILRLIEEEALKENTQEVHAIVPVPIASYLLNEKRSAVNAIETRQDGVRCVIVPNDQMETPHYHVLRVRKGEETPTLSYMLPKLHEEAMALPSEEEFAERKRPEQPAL
Compound,IC50 [1],inhibition at 2000 µM [2]
CC(C)c1c(O)nc(SCCC(=O)O)[nH]c1=O [AS2],1.9 mM,
"N[C@@H]1[C@@H](O)[C@H](O)[C@@H](COP(=O)(O)O)O[C@@H]1O [AS4, glucosamine-6-phosphate]",2.1 mM,
CC1=NNC(=O)C1CCC(=O)O (stereo not shown) [5′S1],2.5 mM,~60%
